Measured values from US20090062291A1, “PHOSPHODIESTERASE 10 INHIBITORS” (priority 2007, published 2009).

target: T1, mPDE10A7 (Mus musculus, UniProt Q8CA95); assay: mPDE10A7 enzyme inhibition (IMAP fluorescence polarization); format: biochemical; settings: fluorescein labeled cAMP or cGMP substrate, 30 min at room temperature
T1 sequence (Q8CA95 446-763 limits assumed): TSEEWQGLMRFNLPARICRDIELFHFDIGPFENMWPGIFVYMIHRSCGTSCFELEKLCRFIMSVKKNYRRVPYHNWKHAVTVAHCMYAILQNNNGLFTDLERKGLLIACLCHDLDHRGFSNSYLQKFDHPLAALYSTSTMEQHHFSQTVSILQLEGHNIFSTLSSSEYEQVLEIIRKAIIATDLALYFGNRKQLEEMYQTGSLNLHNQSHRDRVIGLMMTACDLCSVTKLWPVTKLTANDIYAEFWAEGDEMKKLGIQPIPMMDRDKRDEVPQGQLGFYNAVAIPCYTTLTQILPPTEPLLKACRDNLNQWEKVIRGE
Procedure: Enzyme Activity. To analyze the enzyme activity, 5 μL of serial diluted mPDE10A7 containing lysate were incubated with equal volumes of diluted (100-fold) fluorescein labeled cAMP or cGMP for 30 min in MDC HE 96-well assay plates (Molecular Devices Corp., Sunnyvale Calif.) at room temperature. Both the enzyme and the substrates were diluted in the following assay buffer: Tris/HCl (pH 8.0) 50 mM, MgCl2 5 mM, 2-mercaptoethanol 4 mM, and BSA 0.33 mg/mL. After incubation, the reaction was stopped by adding 20 μL of diluted (400-fold) binding reagents and was incubated for an hour at room temperature. The plates were counted in an Analyst GT (Molecular Devices) for fluorescence polarization. An IMAP assay kit (Molecular Devices) was used to assess enzyme properties of mPDE10A7. Data were analyzed with SOFTMAX PRO software (Molecular Devices).
Enzyme Inhibition. To check the inhibition profile, 10 μL of serial diluted compounds were incubated with 30 μl of diluted PDE enzymes in a 96-well polystyrene assay plate for 30 min at room temperature. After incubation, 5 μL of the compound-enzyme mixture were aliquoted into a MDC HE black plate, mixed with 5 μL of 100-fold diluted fluorescein labeled substrates (cAMP or cGMP), and incubated for 30 min at room temperature. The reaction was stopped by adding 20 μL of diluted binding reagents and counted in an Analyst GT for fluorescence polarization. The data were analyzed with SoftMax Pro.
The IC50 values of a representative number of compounds of the invention in the above assay are as follows: […]

**Q.** Which IC50 does the source give for `COc1cc2nncc(-c3cnc(N4CCC(C(C)(C)O)CC4)c(C4CC4)c3)c2cc1OC` [Cpd 1, 2-(1-(3-cyclopropyl-5-(6,7-dimethoxycinnolin-4-yl)pyridin-2-yl)piperidin-4-yl)propan-2-ol] here?
**A.** 1.1 nM

**Q.** For `COc1cc2nncc(-c3ccc(NC4CCCc5ncccc54)nc3)c2cc1OC` (stereo not shown) [Cpd 5], which IC50 is on record?
**A.** 2.3 nM

**Q.** For `COc1cc2nncc(-c3ccc(N[C@@H]4CCCc5ncccc54)nc3)c2cc1OC` [Cpd 6], which IC50 is on record?
**A.** 2.6 nM

**Q.** For `COc1cc2nncc(-c3ccc(NC4CCOc5ccccc54)nc3)c2cc1OC` (stereo not shown) [Cpd 8], which IC50 is on record?
**A.** 12 nM

**Q.** `COc1cc2nncc(-c3ccc(N[C@H]4CCCc5c(Br)cccc54)nc3)c2cc1OC` [Cpd 11] was tested. Which IC50 did it give?
**A.** 258 nM

**Q.** Which IC50 does the source give for `COc1cc2nncc(-c3ccc(NC4CCc5cccc(OC)c5C4)nc3)c2cc1OC` (stereo not shown) [Cpd 14] here?
**A.** 143 nM

**Q.** Which IC50 does the source give for `COc1cc2nncc(-c3cnc(N4CCC(O)(c5cccnc5)CC4)c(C4CC4)c3)c2cc1OC` [Cpd 15] here?
**A.** 0.2 nM

**Q.** `C=Cc1cc(-c2cnnc3cc(OC)c(OC)cc23)cnc1NC(C)C` [Cpd 22] was tested. Which IC50 did it give?
**A.** 1.7 nM

**Q.** `COc1cc2nncc(-c3cnc(NC(C)C)c(C#N)c3)c2cc1OC` [Cpd 25] was tested. Which IC50 did it give?
**A.** 12 nM

**Q.** For `COc1cc2nncc(-c3cnc(NC(C)C)c(C(N)=O)c3)c2cc1OC` [Cpd 26], which IC50 is on record?
**A.** 9 nM
